Reference: paper PMC5540818 (Chemical biology & drug design, 2017)
Structures can show the parent of a compound that is named as a salt.

Tests used:
[1] = molecular target: Sa-SrtA (Staphylococcus aureus, UniProt Q2FV99); details: read-out: Sa-SrtA IC50; values taken from reference; cited from earlier work
[2] = Solubility in aqueous buffer; type: physicochemical
[3] = system: S. aureus infections; details: dosed at 20 (DMMA) and 40 (triazolothiadiazole) mg of compound per kg of animal; cited from earlier work
[4] = molecular target: SrtA (Staphylococcus aureus, UniProt Q2FV99); details: read-out: SrtA IC50; cited from earlier work
Chain of SrtA (Q2FV99 60-206): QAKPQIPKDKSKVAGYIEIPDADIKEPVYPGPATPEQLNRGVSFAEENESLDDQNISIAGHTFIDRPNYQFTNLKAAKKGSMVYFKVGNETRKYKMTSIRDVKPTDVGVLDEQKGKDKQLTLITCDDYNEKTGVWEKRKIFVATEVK

Chain of Sa-SrtA (Q2FV99 60-206): as above

CCOc1c(S)cnn(-c2ccccc2)c1=O [2-10]
IC50 [1]: 13 ± 1 µM | solubility in aqueous solvent ([2]; aqueous solvent): poorly soluble

CCOc1c(S)cnn(-c2ccccc2)c1=O [2-salt, 5-ethoxy-6-oxo-1-phenyl-1,6-dihydropyridazine-4-thiolate]
solubility ([2]; aqueous buffer): up to 75 mM

O=S(=O)([O-])c1ccccc1-c1nn2c(-c3ccncc3)nnc2s1.[Na+] [triazolothiadiazol, 3-(4-pyridinyl)-6-(2-sodiumsulfonatephenyl)[1,2,4]triazolo[3,4-b][1,3,4]thiadiazole]
efficacy in treating potentially lethal S. aureus infections in animal models [3]: efficacious | IC50 [4]: 9.3 µM

COc1ccc(/C(C#N)=C/c2cc(OC)ccc2OC)cc1 [DMMA, (Z)-3-(2,5-dimethoxyphenyl)-2-(4-methoxyphenyl) acrylonitrile]
efficacy in treating potentially lethal S. aureus infections in animal models [3]: efficacious | IC50 [4]: 9.2 µM
